*1 amine or outer side, *2 acyl side, *3 side chain or, on linkers, in order; H or OH if unused. Where a SMILES comes first, the peptide text is derived from it. Side-chain parts run from the residue outwards. The star is where a group is joined. C18 diacid = O=C(O)CCCCCCCCCCCCCCCCC(=O)*; γGlu = O=C(O)[C@H](CCC(=O)[*:2])N[*:1]; Isovaleryl = CC(C)CC(=O)*; AEEA = NCCOCCOCC(=O)O
These molecules were tested against T1, Human Neuropeptide Y2 Receptor (Homo sapiens, UniProt P49146) (assay: Radioligand binding competition assay (RLB)). Settings: Table 3; human 125I-PYY (1-36) 0.02 nM, Y2 receptor membranes; read-out: Ki.
T1 construct: purchased CHEMICON HTS066M
T1 sequence (P49146 1-381): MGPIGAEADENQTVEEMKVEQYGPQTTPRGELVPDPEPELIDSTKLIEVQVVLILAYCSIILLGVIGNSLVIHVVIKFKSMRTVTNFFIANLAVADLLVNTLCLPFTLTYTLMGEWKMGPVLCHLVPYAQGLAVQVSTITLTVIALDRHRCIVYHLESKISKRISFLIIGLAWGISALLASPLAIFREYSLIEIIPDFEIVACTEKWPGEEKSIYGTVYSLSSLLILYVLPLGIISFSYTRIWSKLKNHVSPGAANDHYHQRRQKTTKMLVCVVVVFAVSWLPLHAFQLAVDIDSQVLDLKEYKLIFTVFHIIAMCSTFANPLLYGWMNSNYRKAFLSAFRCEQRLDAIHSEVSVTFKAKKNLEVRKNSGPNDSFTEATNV
Method in brief: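 Competition binding at commercial human NPY Y2 membrane preparations, 0.5 μg protein per well, 2 h incubation at room temperature. Bound and free ligand were separated on GF/C filters and counted; IC50 was fitted by nonlinear regression.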

SMILES | Ki [nM]
CC(C)CC(=O)N[C@@H](C)C(=O)N1CCC[C@H]1C(=O)N[C@@H](CCC(=O)O)C(=O)N[C@@H](CCCCNC(=O)COCCOCCNC(=O)COCCOCCNC(=O)CC[C@H](NC(=O)CCCCCCCCCCCCCCCCC(=O)O)C(=O)O)C(=O)N1CCC[C@H]1C(=O)N[C@@H](CCC(=O)O)C(=O)N[C@@H](C)C(=O)N[C@@H](CC(=O)O)C(=O)N[C@@H](C)C(=O)N[C@@H](CO)C(=O)N1CCC[C@H]1C(=O)N[C@@H](CCC(=O)O)C(=O)N[C@@H](CCC(=O)O)C(=O)N[C@@H](CC(C)C)C(=O)N[C@@H](CCC(N)=O)C(=O)N[C@@H](CCCNC(=N)N)C(=O)N[C@@H](Cc1ccc(O)cc1)C(=O)N[C@@H](Cc1ccc(O)cc1)C(=O)N[C@H](C(=O)N[C@@H](CCC(=O)O)C(=O)N[C@@H](CC(C)C)C(=O)N[C@@H](CCCNC(=N)N)C(=O)N[C@@H](Cc1c[nH]cn1)C(=O)N[C@@H](Cc1ccc(O)cc1)C(=O)N[C@@H](Cc1ccc(O)cc1)C(=O)N[C@@H](CC(N)=O)C(=O)N[C@@H](Cc1c[nH]c2ccccc12)C(=O)N[C@@H](CC(C)C)C(=O)N[C@H](C(=O)N[C@@H](CCCNC(=N)N)C(=O)N[C@@H](CCC(N)=O)C(=O)N[C@@H](CCCNC(=N)N)C(=O)N[C@@H](Cc1ccc(O)cc1)C(N)=O)[C@@H](C)O)C(C)C [Compound 135, N{alpha-4}-(3-methylbutanoyl)-N{epsilon-7}-[2-(2-{2-[2-(2-{2-[(4S)-4-carboxy-4-(17-carboxyheptadecanamido)butanamido]ethoxy}ethoxy)acetamido]ethoxy}ethoxy)acetamido]-[4A,7K,9E,10A,18Q,22V,23E,28Y,30W,31L]hPYY (4-36)] | 1.31
CC(C)CC(=O)N[C@@H](C)C(=O)N1CCC[C@H]1C(=O)N[C@@H](CCC(=O)O)C(=O)N[C@@H](CCCCNC(=O)COCCOCCNC(=O)COCCOCCNC(=O)CC[C@H](NC(=O)CCCCCCCCCCCCCCCCC(=O)O)C(=O)O)C(=O)N1CCC[C@H]1C(=O)N[C@@H](CCC(=O)O)C(=O)N[C@@H](C)C(=O)N[C@@H](CC(=O)O)C(=O)N[C@@H](CO)C(=O)N[C@@H](CO)C(=O)N1CCC[C@H]1C(=O)N[C@@H](CCC(=O)O)C(=O)N[C@@H](CCC(=O)O)C(=O)N[C@@H](CC(C)C)C(=O)N[C@@H](CCC(N)=O)C(=O)N[C@@H](CCCNC(=N)N)C(=O)N[C@@H](Cc1ccc(O)cc1)C(=O)N[C@@H](Cc1ccc(O)cc1)C(=O)N[C@H](C(=O)N[C@@H](CO)C(=O)N[C@@H](CC(C)C)C(=O)N[C@@H](CCCNC(=N)N)C(=O)N[C@@H](Cc1c[nH]cn1)C(=O)N[C@@H](Cc1ccc(O)cc1)C(=O)N[C@@H](Cc1ccc(O)cc1)C(=O)N[C@@H](CC(N)=O)C(=O)N[C@@H](Cc1c[nH]c2ccccc12)C(=O)N[C@@H](CC(C)C)C(=O)N[C@H](C(=O)N[C@@H](CCCNC(=N)N)C(=O)N[C@@H](CCC(N)=O)C(=O)N[C@@H](CCCNC(=N)N)C(=O)N[C@@H](Cc1ccc(O)cc1)C(N)=O)[C@@H](C)O)C(C)C [Compound 136, N{alpha-4}-(3-methylbutanoyl)-N{epsilon-7}-[2-(2-{2-[2-(2-{2-[(4S)-4-carboxy-4-(17-carboxyheptadecanamido)butanamido]ethoxy}ethoxy)acetamido]ethoxy}ethoxy)acetamido]-[4A,7K,9E,10A,12S,18Q,22V,28Y,30W,31L]hPYY (4-36)] (Isovaleryl-APEK([AEEA-AEEA-γGlu-C18 diacid])PEADSSPEELQRYYVSLRHYYNWLTRQRY-NH2) | 0.89
CC(C)CC(=O)N[C@@H](C)C(=O)N1CCC[C@H]1C(=O)N[C@@H](C)C(=O)N[C@@H](CCCCNC(=O)COCCOCCNC(=O)COCCOCCNC(=O)CC[C@H](NC(=O)CCCCCCCCCCCCCCCCC(=O)O)C(=O)O)C(=O)N1CCC[C@H]1C(=O)N[C@@H](CCC(=O)O)C(=O)N[C@@H](CCC(=O)O)C(=O)N[C@@H](CC(=O)O)C(=O)N[C@@H](C)C(=O)N[C@@H](CO)C(=O)N1CCC[C@H]1C(=O)N[C@@H](CCC(=O)O)C(=O)N[C@@H](CCC(=O)O)C(=O)N[C@@H](CC(C)C)C(=O)N[C@@H](CCC(N)=O)C(=O)N[C@@H](CCC(N)=O)C(=O)N[C@@H](Cc1ccc(O)cc1)C(=O)N[C@@H](Cc1ccc(O)cc1)C(=O)N[C@H](C(=O)N[C@@H](CO)C(=O)N[C@@H](CC(C)C)C(=O)N[C@@H](CCCNC(=N)N)C(=O)N[C@@H](Cc1c[nH]cn1)C(=O)N[C@@H](Cc1ccc(O)cc1)C(=O)N[C@@H](Cc1ccc(O)cc1)C(=O)N[C@@H](CC(N)=O)C(=O)N[C@@H](Cc1c[nH]c2ccccc12)C(=O)N[C@@H](CC(C)C)C(=O)N[C@H](C(=O)N[C@@H](CCCNC(=N)N)C(=O)N[C@@H](CCC(N)=O)C(=O)N[C@@H](CCCNC(=N)N)C(=O)N[C@@H](Cc1ccc(O)cc1)C(N)=O)[C@@H](C)O)C(C)C [Compound 138, N{alpha-4}-(3-methylbutanoyl)-N{epsilon-7}-[2-(2-{2-[2-(2-{2-[(4S)-4-carboxy-4-(17-carboxyheptadecanamido)butanamido]ethoxy}ethoxy)acetamido]ethoxy}ethoxy)acetamido]-[4A,6A,7K,9E,18Q,19Q,22V,28Y,30W,31L]hPYY (4-36)] | 1.42
CC(C)CC(=O)N[C@@H](C)C(=O)N1CCC[C@H]1C(=O)N[C@@H](CCC(=O)O)C(=O)N[C@@H](CCCCNC(=O)COCCOCCNC(=O)COCCOCCNC(=O)CC[C@H](NC(=O)CCCCCCCCCCCCCCCCC(=O)O)C(=O)O)C(=O)N1CCC[C@H]1C(=O)N[C@@H](CCC(=O)O)C(=O)N[C@@H](CCC(=O)O)C(=O)N[C@@H](C)C(=O)N[C@@H](C)C(=O)N[C@@H](CO)C(=O)N1CCC[C@H]1C(=O)N[C@@H](CCC(=O)O)C(=O)N[C@@H](CCC(=O)O)C(=O)N[C@@H](CC(C)C)C(=O)N[C@@H](CCC(N)=O)C(=O)N[C@@H](CCCNC(=N)N)C(=O)N[C@@H](Cc1ccc(O)cc1)C(=O)N[C@@H](Cc1ccc(O)cc1)C(=O)N[C@H](C(=O)N[C@@H](CO)C(=O)N[C@@H](C)C(=O)N[C@@H](CCCNC(=N)N)C(=O)N[C@@H](Cc1c[nH]cn1)C(=O)N[C@@H](Cc1ccc(O)cc1)C(=O)N[C@@H](Cc1ccc(O)cc1)C(=O)N[C@@H](CC(N)=O)C(=O)N[C@@H](Cc1c[nH]c2ccccc12)C(=O)N[C@@H](CC(C)C)C(=O)N[C@H](C(=O)N[C@@H](CCCNC(=N)N)C(=O)N[C@@H](CCC(N)=O)C(=O)N[C@@H](CCCNC(=N)N)C(=O)N[C@@H](Cc1ccc(O)cc1)C(N)=O)[C@@H](C)O)C(C)C [Compound 141, N{alpha-4}-(3-methylbutanoyl)-N{epsilon-7}-[2-(2-{2-[2-(2-{2-[(4S)-4-carboxy-4-(17-carboxyheptadecanamido)butanamido]ethoxy}ethoxy)acetamido]ethoxy}ethoxy)acetamido]-[4A,7K,9E,11A,18Q,22V,24A,28Y,30W,31L]hPYY (4-36)] (Isovaleryl-APEK([AEEA-AEEA-γGlu-C18 diacid])PEEAASPEELQRYYVSARHYYNWLTRQRY-NH2) | 3.12
